Patent US9822126B1, “Substituted 1,2,3-triazol-1-yl-methyl-2,3-dihydro-2-methyl-6-nitroimidazo[2,1-b]oxazoles as anti-mycobacterial agents and a process for the preparation thereof” (priority 2014, dated 2017)
Values after ≈ are worked out from the molar mass of the structure shown. Like-named read-outs stand apart in the source and are kept apart here.

How the values were obtained:
Assay type in all cases: cell-based
[1] = system: non-replicating stages of M. tuberculosis; assay: MIC against non-replicating M. tuberculosis; conditions: Mycobacterium tuberculosis, read-out: MIC Non-replicating strain
[2] = system: macrophage J774 cells line; assay: Cytotoxicity assay (MTT) in macrophage J774 cells; conditions: macrophage J774, 24 hrs incubation, tested at 40 μg/ml
Experimental: The study was carried out using macrophage J774 cells line (ATCC-USA). Cells were grown in Rosewell Park Memorial Institute Medium (RPMI) containing 10% fetal calf serum (FCS) and supplemented with 75 mg/liter penicillin, 100 mg/liter streptomycin, 110 mg/liter Sodium pyruvate, 2.38 gm/liter HEPES, 0.05 mM 2 β-mercaptoethanol, and 2 gm/liter NaHCO3, in a humidified atmosphere in 5% CO2 at 37° C., and were sub-cultured at 1:4 ratio once a week.
Cells were plated at a density of 3×10^4 cells/cm^2 and maintained in culture medium for 12 hours. Cells were seeded onto 96-well flat bottom plates and FCS was reduced to 5% for the experiment. Stock solutions of compounds 9 to 37 were prepared fresh to avoid oxidation. Cells were incubated with the compounds (40 μg/ml) for 24 hrs.
After the completion of incubation, the medium was removed and cell viability was evaluated by assaying for the ability of functional mitochondria to catalyze the reduction of 3-(4,5-dimethylthiazol-2-yl)-2,5-diphenyltetrazolium bromide (MTT) to form formazan salt by mitochondrial dehydrogenases, and determined by Elisa reader at 450 nm (Multiskan Spectrum; Thermo Electron Corporation, USA). Percentage cytotoxicity was calculated with respect to the untreated cells.

[3] = system: M. tuberculosis H37Rv (ATCC 27294); assay: MIC by broth dilution against M. tuberculosis H37Rv (replicating); conditions: Mycobacterium tuberculosis
[4] = 504 h, broth dilution, 37° C. for 3-weeks, read visually, replicating stage, read-out: MIC M. tb H37Rv

Row | Compound | MIC [1] | Cytotoxicity [2] | MIC [3, 4] | MIC ([3]; read-out: MIC value)
1 | C[C@]1(Cn2cc(-c3ccc(OC(F)(F)F)cc3)nn2)Cn2cc([N+](=O)[O-])nc2O1 [I1, (R)-2-Methyl-6-nitro-2-((4-(4-(trifluoromethoxy)phenyl)-1H-1,2,3-triazol-1-yl)methyl)-2,3-dihydroimidazo[2,1-b]oxazole] | 4 µg/mL (≈ 9.75 µM) | >40 µg/mL | 2 µg/mL (≈ 4.87 µM) | 
2 | C[C@]1(Cn2cc(-c3ccc(C(F)(F)F)cc3)nn2)Cn2cc([N+](=O)[O-])nc2O1 [I2, (R)-2-Methyl-6-nitro-2-((4-(4-(trifluoromethyl)phenyl)-1H-1,2,3-triazol-1-yl)methyl)-2,3-dihydroimidazo[2,1-b]oxazole] | 8 µg/mL (≈ 20.3 µM) | >40 µg/mL | 2 µg/mL (≈ 5.07 µM) | 
3 | C[C@]1(Cn2cc(-c3ccc(F)cc3)nn2)Cn2cc([N+](=O)[O-])nc2O1 [I3, (R)-2-((4-(4-Fluorophenyl)-1H-1,2,3-triazol-1-yl)methyl)-2-methyl-6nitro-2,3-dihydro imidazo[2,1-b]oxazole] | 2 µg/mL (≈ 5.81 µM) | >40 µg/mL | 1 µg/mL (≈ 2.9 µM) | 
4 | Cc1cc(-c2cn(C[C@@]3(C)Cn4cc([N+](=O)[O-])nc4O3)nn2)ccc1F [I4, (R)-2-((4-(4-Fluoro-3-methylphenyl)-1H-1,2,3-triazol-1-yl)methyl)-2-methyl-6-nitro-2,3-dihydroimidazo[2,1-b]oxazole] | 4 µg/mL (≈ 11.2 µM) | >40 µg/mL | 2 µg/mL (≈ 5.58 µM) | 
5 | C[C@]1(Cn2cc(-c3ccc(F)cc3F)nn2)Cn2cc([N+](=O)[O-])nc2O1 [I5, (R)-2-((4-(2,4-Difluorophenyl)-1H-1,2,3-triazol-1-yl)methyl)-2-methyl-6-nitro-2,3-dihydroimidazo[2,1-b]oxazole] | 8 µg/mL (≈ 22.1 µM) | >40 µg/mL | 1 µg/mL (≈ 2.76 µM) | 
6 | C[C@]1(Cn2cc(-c3ccc(Oc4ccccc4)cc3)nn2)Cn2cc([N+](=O)[O-])nc2O1 [I6, (R)-2-Methyl-6-nitro-2-((4-(4-phenoxyphenyl)-1H-1,2,3-triazol-1-yl)methyl)-2,3-dihydroimidazo[2,1-b]oxazole] | 2 µg/mL (≈ 4.78 µM) | >40 µg/mL | 2 µg/mL (≈ 4.78 µM) | 
7 | CCCCCc1cn(C[C@@]2(C)Cn3cc([N+](=O)[O-])nc3O2)nn1 [I7, (R)-2-[(4-Pentyl-1H-1,2,3-triazol-1-yl)methyl]-2,3-dihydro-2-methyl-6-nitroimidazo[2,1-b]oxazole] | 4 µg/mL (≈ 12.5 µM) | >40 µg/mL | 2 µg/mL (≈ 6.24 µM) | 
8 | C[C@]1(Cn2cc(COc3ccc(OC(F)(F)F)cc3)nn2)Cn2cc([N+](=O)[O-])nc2O1 [I8, (R)-2-Methyl-6-nitro-2-((4-((4-(trifluoromethoxy)phenoxy)methyl)-1H-1,2,3-triazol-1-yl)methyl)-2,3-dihydroimidazo[2,1-b]oxazole] | 4 µg/mL (≈ 9.08 µM) | >40 µg/mL | 2 µg/mL (≈ 4.54 µM) | 
9 | C[C@]1(Cn2cc(COc3ccc(C(F)(F)F)cc3)nn2)Cn2cc([N+](=O)[O-])nc2O1 [I9, (R)-2-Methyl-6-nitro-2-((4-((4-(trifluoromethyl)phenoxy)methyl)-1H-1,2,3-triazol-1-yl)methyl)-2,3-dihydroimidazo[2,1-b]oxazole] | 2 µg/mL (≈ 4.71 µM) | >40 µg/mL | 1 µg/mL (≈ 2.36 µM) | 
10 | C[C@]1(Cn2cc(COc3cccc(Cl)c3)nn2)Cn2cc([N+](=O)[O-])nc2O1 [I10, (R)-2-((4-((3-Chlorophenoxy)methyl)-1H-1,2,3-triazol-1-yl)methyl)-2-methyl-6-nitro-2,3-dihydroimidazo[2,1-b]oxazole] | 1 µg/mL (≈ 2.56 µM) | >40 µg/mL | 0.5 µg/mL (≈ 1.28 µM) | < 1 µg/mL
11 | C[C@]1(Cn2cc(COc3ccc(Br)cc3)nn2)Cn2cc([N+](=O)[O-])nc2O1 [I11, (R)-2-((4-((4-Bromophenoxy)methyl)-1H-1,2,3-triazol-1-yl)methyl)-2-methyl-6-nitro-2,3-dihydroimidazo[2,1-b]oxazole] | 0.25 µg/mL (≈ 0.574 µM) | >40 µg/mL | 0.12 µg/mL (≈ 0.276 µM) | < 1 µg/mL
12 | Cc1ccc(OCc2cn(C[C@@]3(C)Cn4cc([N+](=O)[O-])nc4O3)nn2)cc1 [I12, (R)-2-Methyl-6-nitro-2-((4-((p-tolyloxy)methyl)-1H-1,2,3-triazol-1-yl)methyl)-2,3-dihydroimidazo[2,1-b]oxazole] | 2 µg/mL (≈ 5.4 µM) | >40 µg/mL | 1 µg/mL (≈ 2.7 µM) | 
13 | Cc1cccc(OCc2cn(C[C@@]3(C)Cn4cc([N+](=O)[O-])nc4O3)nn2)c1 [I13, (R)-2-Methyl-6-nitro-2-((4-((m-tolyloxy)methyl)-1H-1,2,3-triazol-1-yl)methyl)-2,3-dihydroimidazo[2,1-b]oxazole] | 0.5 µg/mL (≈ 1.35 µM) | >40 µg/mL | 0.5 µg/mL (≈ 1.35 µM) | < 1 µg/mL
14 | Cc1ccccc1OCc1cn(C[C@@]2(C)Cn3cc([N+](=O)[O-])nc3O2)nn1 [I14, (R)-2-Methyl-6-nitro-2-((4-((o-tolyloxy)methyl)-1H-1,2,3-triazol-1-yl)methyl)-2,3-dihydroimidazo[2,1-b]oxazole] | 2 µg/mL (≈ 5.4 µM) | >40 µg/mL | 0.5 µg/mL (≈ 1.35 µM) | < 1 µg/mL
15 | CCc1ccc(OCc2cn(C[C@@]3(C)Cn4cc([N+](=O)[O-])nc4O3)nn2)cc1 [I15, (R)-2-((4-((4-Ethylphenoxy)methyl)-1H-1,2,3-triazol-1-yl)methyl)-2-methyl-6-nitro-2,3-dihydroimidazo[2,1-b]oxazole] | 2 µg/mL (≈ 5.2 µM) | >40 µg/mL | 2 µg/mL (≈ 5.2 µM) | 
16 | C[C@]1(Cn2cc(COc3cccc(F)c3)nn2)Cn2cc([N+](=O)[O-])nc2O1 [I16, (R)-2-((4-((3-Fluorophenoxy)methyl)-1H-1,2,3-triazol-1-yl)methyl)-2-methyl-6-nitro-2,3-dihydroimidazo[2,1-b]oxazole] | 2 µg/mL (≈ 5.34 µM) | >40 µg/mL | 1 µg/mL (≈ 2.67 µM) | 
17 | C[C@]1(Cn2cc(COc3ccccc3F)nn2)Cn2cc([N+](=O)[O-])nc2O1 [I17, (R)-2-((4-((2-Fluorophenoxy)methyl)-1H-1,2,3-triazol-1-yl)methyl)-2-methyl-6-nitro-2,3-dihydroimidazo[2,1-b]oxazole] | 0.5 µg/mL (≈ 1.34 µM) | >40 µg/mL | 0.25 µg/mL (≈ 0.668 µM) | < 1 µg/mL
18 | CC(C)c1ccc(OCc2cn(C[C@@]3(C)Cn4cc([N+](=O)[O-])nc4O3)nn2)cc1 [I18, (R)-2-((4-((4-Isopropylphenoxy)methyl)-1H-1,2,3-triazol-1-yl)methyl)-2-methyl-6-nitro-2,3-dihydroimidazo[2,1-b]oxazole] | 1 µg/mL (≈ 2.51 µM) | >40 µg/mL | 0.5 µg/mL (≈ 1.25 µM) | < 1 µg/mL
19 | C[C@]1(Cn2cc(COc3ccccn3)nn2)Cn2cc([N+](=O)[O-])nc2O1 [I19, (R)-2-Methyl-6-nitro-2-((4-((pyridin-2-yloxy)methyl)-1H-1,2,3-triazol-1-yl)methyl)-2,3-dihydroimidazo[2,1-b]oxazole] | 2 µg/mL (≈ 5.6 µM) | >40 µg/mL | 1 µg/mL (≈ 2.8 µM) | 
20 | Cc1ccc(SCc2cn(C[C@@]3(C)Cn4cc([N+](=O)[O-])nc4O3)nn2)cc1 [I20, (R)-2-Methyl-6-nitro-2-((4-((p-tolylthio)methyl)-1H-1,2,3-triazol-1-yl)methyl)-2,3-dihydroimidazo[2,1-b]oxazole] | 1 µg/mL (≈ 2.59 µM) | >40 µg/mL | 2 µg/mL (≈ 5.18 µM) | 
21 | Cc1ccc(OCCc2cn(C[C@@]3(C)Cn4cc([N+](=O)[O-])nc4O3)nn2)cc1 [I21, (R)-2-Methyl-6-nitro-2-((4-(2-(p-tolyloxy)ethyl)-1H-1,2,3-triazol-1-yl)methyl)-2,3-dihydroimidazo[2,1-b]oxazole] | 0.25 µg/mL (≈ 0.65 µM) | >40 µg/mL | 0.25 µg/mL (≈ 0.65 µM) | < 1 µg/mL
22 | C[C@]1(Cn2cc(CN3CCOCC3)nn2)Cn2cc([N+](=O)[O-])nc2O1 [I22, (R)-2-Methyl-2-((4-(morpholinomethyl)-1H-1,2,3-triazol-1-yl)methyl)-6-nitro-2,3-dihydroimidazo[2,1-b]oxazole] | 1 µg/mL (≈ 2.86 µM) | >40 µg/mL | 2 µg/mL (≈ 5.72 µM) | 
